Reference: ChEMBL document CHEMBL5465560, “Selectivity Literature for EUbOPEN Chemogenomic Library” (2024)

Key:
[1] = molecular target: Protein arginine N-methyltransferase 5 (Homo sapiens, UniProt O14744); assay: Selectivity interaction (Scintillation proximity assays) EUB0000255b PRMT5
[2] = molecular target: Non-receptor tyrosine-protein kinase TYK2 (Homo sapiens, UniProt P29597); assay: Selectivity interaction (KinomeScan (DiscoverX)) EUB0000655a TYK2; settings: at 10 µM
[3] = molecular target: 5-hydroxytryptamine receptor 7 (Homo sapiens) (UniProt P34969); assay: Selectivity interaction (GPCR panel (PDSP screen)) EUB0001079a HTR7; settings: at 10 µM
[4] = molecular target: Glycogen synthase kinase-3 alpha (Homo sapiens, UniProt P49840); assay: Selectivity interaction (Millipore kinase profiler) EUB0000124b GSK3A; settings: at 10 µM
[5] = molecular target: T1, Rhodopsin kinase GRK7 (Homo sapiens) (UniProt Q8WTQ7); assay: Selectivity interaction (Kinase panel (Invitrogen)) EUB0000639a GRK7; settings: at 200 nM
T1 sequence (whole entry): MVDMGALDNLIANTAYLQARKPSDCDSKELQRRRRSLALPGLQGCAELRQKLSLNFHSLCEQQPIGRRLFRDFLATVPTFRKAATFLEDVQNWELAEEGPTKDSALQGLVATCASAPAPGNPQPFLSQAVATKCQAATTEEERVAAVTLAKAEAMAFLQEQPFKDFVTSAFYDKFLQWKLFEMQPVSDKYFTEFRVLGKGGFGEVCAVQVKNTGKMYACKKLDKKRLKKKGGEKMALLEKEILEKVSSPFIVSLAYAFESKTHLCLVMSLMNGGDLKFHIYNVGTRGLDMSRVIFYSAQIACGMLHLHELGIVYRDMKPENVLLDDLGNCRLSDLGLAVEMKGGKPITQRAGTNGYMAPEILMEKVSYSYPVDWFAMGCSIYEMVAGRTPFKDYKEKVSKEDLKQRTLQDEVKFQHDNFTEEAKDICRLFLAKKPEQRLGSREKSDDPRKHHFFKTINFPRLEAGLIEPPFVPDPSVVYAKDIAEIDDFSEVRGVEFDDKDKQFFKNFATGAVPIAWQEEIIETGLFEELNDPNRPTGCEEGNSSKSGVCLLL

[6] = molecular target: Activin receptor type-1-like (Homo sapiens) (UniProt P37023); assay: Selectivity interaction (KinomeScan (DiscoverX)) EUB0000045b ACVRL1
[7] = molecular target: T2, Serine/threonine-protein kinase TAO2 (Homo sapiens) (UniProt Q9UL54); assay: Selectivity interaction (Ambit KINOMEscan and KiNATiv profiling in Jurkat cells) EUB0000090b TAOK2; type: cell-based; settings: at 1 µM
T2 sequence (whole entry): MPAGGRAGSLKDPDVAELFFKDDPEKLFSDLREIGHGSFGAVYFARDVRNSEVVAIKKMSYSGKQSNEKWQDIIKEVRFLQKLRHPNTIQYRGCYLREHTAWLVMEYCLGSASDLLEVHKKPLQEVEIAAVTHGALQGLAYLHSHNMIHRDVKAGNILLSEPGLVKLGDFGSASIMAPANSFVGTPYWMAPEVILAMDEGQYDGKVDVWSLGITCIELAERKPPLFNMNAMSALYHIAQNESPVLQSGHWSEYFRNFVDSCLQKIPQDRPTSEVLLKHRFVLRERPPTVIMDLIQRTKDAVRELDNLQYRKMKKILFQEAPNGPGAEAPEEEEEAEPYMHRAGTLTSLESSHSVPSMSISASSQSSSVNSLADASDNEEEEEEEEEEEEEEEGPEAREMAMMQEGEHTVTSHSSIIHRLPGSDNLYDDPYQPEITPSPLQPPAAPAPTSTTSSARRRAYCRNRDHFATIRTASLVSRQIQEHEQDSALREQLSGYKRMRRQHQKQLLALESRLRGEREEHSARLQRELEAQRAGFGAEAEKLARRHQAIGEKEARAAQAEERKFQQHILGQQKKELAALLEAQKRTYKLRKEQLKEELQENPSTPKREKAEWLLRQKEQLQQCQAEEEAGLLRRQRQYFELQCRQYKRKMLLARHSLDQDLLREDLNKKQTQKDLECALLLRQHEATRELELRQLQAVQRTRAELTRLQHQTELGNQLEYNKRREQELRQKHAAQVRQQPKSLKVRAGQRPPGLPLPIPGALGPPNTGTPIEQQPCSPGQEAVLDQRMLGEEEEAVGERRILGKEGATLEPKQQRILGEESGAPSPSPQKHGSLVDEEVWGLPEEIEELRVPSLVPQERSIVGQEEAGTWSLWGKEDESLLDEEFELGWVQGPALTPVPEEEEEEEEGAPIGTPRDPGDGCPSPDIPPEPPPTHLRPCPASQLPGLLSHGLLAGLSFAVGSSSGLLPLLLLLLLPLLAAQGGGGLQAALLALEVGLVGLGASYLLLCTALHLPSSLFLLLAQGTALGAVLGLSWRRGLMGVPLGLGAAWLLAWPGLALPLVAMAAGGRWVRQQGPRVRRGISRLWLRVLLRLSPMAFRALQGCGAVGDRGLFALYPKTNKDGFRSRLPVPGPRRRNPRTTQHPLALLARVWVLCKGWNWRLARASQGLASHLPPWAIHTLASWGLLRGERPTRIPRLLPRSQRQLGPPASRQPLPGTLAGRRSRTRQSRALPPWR

Activin receptor type-1-like (Homo sapiens), sequence (P37023 whole entry): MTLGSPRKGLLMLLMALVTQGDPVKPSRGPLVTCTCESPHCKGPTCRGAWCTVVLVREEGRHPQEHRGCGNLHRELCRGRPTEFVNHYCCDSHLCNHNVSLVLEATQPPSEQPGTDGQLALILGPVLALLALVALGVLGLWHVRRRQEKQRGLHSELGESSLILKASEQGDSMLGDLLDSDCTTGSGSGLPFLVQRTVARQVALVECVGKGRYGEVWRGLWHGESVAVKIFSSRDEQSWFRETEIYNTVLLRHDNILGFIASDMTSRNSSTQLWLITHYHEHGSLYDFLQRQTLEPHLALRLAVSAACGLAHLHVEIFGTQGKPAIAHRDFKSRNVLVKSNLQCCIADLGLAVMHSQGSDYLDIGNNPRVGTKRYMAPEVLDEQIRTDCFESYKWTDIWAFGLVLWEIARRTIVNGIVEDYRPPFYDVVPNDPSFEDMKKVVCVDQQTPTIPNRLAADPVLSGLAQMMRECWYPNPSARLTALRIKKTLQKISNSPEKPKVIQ
Protein arginine N-methyltransferase 5, sequence (O14744 whole entry): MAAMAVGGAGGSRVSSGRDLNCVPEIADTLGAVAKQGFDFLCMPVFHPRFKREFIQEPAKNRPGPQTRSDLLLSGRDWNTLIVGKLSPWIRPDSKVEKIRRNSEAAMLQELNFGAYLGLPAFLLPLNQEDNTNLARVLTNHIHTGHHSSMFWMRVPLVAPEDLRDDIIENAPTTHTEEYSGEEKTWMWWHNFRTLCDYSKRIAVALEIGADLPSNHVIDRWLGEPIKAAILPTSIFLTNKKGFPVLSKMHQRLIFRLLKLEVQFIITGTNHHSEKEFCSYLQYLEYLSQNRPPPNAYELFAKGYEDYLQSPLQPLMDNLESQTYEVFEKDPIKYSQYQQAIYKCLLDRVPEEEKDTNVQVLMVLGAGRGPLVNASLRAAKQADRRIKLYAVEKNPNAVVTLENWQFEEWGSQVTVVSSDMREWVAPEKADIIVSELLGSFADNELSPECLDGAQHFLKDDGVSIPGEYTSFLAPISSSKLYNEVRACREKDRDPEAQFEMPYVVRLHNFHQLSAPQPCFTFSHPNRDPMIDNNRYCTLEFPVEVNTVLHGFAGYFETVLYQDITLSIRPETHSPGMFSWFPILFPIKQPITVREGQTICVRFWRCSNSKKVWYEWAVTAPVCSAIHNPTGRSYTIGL
Glycogen synthase kinase-3 alpha, sequence (P49840 2-483 limits assumed): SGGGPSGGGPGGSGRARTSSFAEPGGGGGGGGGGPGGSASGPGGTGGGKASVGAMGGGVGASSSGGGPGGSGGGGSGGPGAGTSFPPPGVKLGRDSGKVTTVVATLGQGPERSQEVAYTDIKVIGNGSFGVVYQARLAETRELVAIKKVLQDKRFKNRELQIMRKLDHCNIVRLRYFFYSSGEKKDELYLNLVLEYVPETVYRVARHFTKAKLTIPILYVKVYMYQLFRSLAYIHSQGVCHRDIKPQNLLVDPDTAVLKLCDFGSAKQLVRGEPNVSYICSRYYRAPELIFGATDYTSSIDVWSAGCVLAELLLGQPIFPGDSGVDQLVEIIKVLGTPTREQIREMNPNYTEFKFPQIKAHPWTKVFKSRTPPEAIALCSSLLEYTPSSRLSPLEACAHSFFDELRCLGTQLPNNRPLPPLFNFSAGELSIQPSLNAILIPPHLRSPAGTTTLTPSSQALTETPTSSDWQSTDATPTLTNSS
Non-receptor tyrosine-protein kinase TYK2, sequence (P29597 whole entry): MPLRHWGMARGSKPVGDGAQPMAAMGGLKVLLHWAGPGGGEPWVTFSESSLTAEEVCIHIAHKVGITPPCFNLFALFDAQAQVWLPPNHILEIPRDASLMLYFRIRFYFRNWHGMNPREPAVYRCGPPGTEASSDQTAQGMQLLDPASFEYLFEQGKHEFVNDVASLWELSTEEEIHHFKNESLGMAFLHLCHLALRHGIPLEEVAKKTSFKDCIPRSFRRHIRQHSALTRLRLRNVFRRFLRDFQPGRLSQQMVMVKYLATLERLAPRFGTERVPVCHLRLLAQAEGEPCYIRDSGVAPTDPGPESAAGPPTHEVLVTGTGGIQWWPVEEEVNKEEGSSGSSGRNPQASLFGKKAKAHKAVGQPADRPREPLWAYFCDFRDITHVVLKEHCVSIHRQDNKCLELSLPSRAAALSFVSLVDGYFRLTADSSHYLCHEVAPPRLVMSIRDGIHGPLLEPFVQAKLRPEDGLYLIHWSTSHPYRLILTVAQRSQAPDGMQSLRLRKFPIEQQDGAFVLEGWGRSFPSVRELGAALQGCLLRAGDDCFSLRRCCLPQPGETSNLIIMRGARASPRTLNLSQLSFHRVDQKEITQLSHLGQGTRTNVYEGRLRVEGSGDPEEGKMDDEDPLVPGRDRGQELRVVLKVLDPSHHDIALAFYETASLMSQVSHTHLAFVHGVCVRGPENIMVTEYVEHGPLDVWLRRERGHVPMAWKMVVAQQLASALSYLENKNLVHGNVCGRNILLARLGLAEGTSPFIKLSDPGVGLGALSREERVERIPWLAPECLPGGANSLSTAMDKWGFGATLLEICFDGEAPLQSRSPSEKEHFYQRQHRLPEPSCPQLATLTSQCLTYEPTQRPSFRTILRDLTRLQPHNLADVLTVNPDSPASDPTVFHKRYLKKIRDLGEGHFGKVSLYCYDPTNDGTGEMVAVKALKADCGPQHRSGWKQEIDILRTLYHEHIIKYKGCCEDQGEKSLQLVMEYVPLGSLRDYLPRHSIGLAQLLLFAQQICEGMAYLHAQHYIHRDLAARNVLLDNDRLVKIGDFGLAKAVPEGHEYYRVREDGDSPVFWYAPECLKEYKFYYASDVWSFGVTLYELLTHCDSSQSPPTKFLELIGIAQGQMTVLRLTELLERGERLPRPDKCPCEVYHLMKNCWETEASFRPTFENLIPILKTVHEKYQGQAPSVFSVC
5-hydroxytryptamine receptor 7 (Homo sapiens), sequence (P34969 whole entry): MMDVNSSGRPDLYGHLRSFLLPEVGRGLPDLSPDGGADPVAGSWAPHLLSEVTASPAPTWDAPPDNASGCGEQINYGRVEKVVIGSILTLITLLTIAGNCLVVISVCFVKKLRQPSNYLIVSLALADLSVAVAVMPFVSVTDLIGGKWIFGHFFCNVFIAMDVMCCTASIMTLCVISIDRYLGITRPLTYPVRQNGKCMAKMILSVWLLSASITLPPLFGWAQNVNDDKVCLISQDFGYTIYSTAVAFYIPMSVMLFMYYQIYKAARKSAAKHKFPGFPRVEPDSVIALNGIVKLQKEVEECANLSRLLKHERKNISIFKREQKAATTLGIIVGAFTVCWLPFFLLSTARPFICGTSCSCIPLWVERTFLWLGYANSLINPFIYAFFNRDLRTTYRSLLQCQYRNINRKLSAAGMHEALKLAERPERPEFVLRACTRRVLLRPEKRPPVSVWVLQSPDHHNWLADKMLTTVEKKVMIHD

COCCN1CCC(c2cc(CN(C)C(=O)c3cccc(Oc4ccccc4)c3)ccn2)CC1
IC50 [1]: > 10 µM

CN(C)CCOc1ccc(-c2nc(-c3ccncc3)c(-c3ccc4c(c3)CC/C4=N\O)[nH]2)cc1
% of control [2]: 100%

Nc1cnc(N2CCc3cc(S(=O)(=O)Nc4c(F)cc(Cl)cc4F)cc(N4CCCC4=O)c32)nc1 [TP-020n]
% of inhibition [3]: 0.94%

CC(=O)Nc1cccc(-n2c(=O)n(C3CC3)c(=O)c3c(Nc4ccc(I)cc4F)n(C)c(=O)c(C)c32)c1
% of control [4]: 99%

CC[C@@H]1[C@H](F)C(=O)N[C@@H]1COc1nccc2cc(C(N)=O)c(OC)cc12 [ZIMLOVISERTIB]
% of inhibition [5]: 1.87%

C=CC(=O)Nc1cc(-n2c(=O)ccc3cnc4ccc(-c5ccc(NS(C)(=O)=O)cc5)cc4c32)ccc1C
% of control ([6]; at 1 µM): 100%
% of control ([6]; at 10 µM): 75%

CN(C)C/C=C/C(=O)Nc1ccc(C(=O)N2CCCC(Nc3ncc(Cl)c(-c4c[nH]c5ccccc45)n3)C2)cc1 (stereo not drawn)
% of control [7]: 50%
